Values of other authors, collected in patent US20040143023A1, “Materials and methods for synthesizing stilbenes” (priority 2000, published 2004).

Legend:
[1] = system: P388 murine leukaemia cell line; details: cell line not restated for the trans isomer
[2] = in water and saline

| Structure (SMILES) | concentration range in which cell growth is inhibited [1] | solubility [2] | toxicity toward tumour vasculature (tumour vasculature) |
| --- | --- | --- | --- |
| COc1ccc(/C=C/c2cc(OC)c(OC)c(OC)c2)cc1O [trans-combretastatin A-4, E-1-(3′-Hydroxy-4′-methoxy)-2-(Trimethoxyphenyl)-2-(3″,4″,5″-trimethoxyphenyl)ethene] | millimblar range | – | – |
| COc1ccc(/C=C\c2cc(OC)c(OC)c(OC)c2)cc1O [cis-combretastatin A-4, Z-1-(3′-Hydroxy-4′-methoxyphenyl)-2-(3″,4″,5″-trimethoxyphenyl)ethene] | – | low solubility | potent and selective toxicity |
